Patent publication US12680074B2, “Antigen presenting T cells, sensitized, manufactured T cells and methods of treatment using the same” (RAPA THERAPEUTICS, LLC, priority 2020, dated 2026)

B1: daclizumab: anti-IL-2 receptor monoclonal antibody (antibody, chains of the INN, looked up, V domains shown)
VH: QVQLVQSGAEVKKPGSSVKVSCKASGYTFTSYRMHWVRQAPGQGLEWIGYINPSTGYTEYNQKFKDKATITADESTNTAYMELSSLRSEDTAVYYCARGGGVFDYWGQGTLVTVSS
VL: DIQMTQSPSTLSASVGDRVTITCSASSSISYMHWYQQKPGKAPKLLIYTTSNLASGVPARFSGSGSGTEFTLTISSLQPDDFATYYCHQRSTYPLTFGQGTKVEVK

What was measured:
[1] = tested on: pancreatic cancer cell line MIA PaCa-2 and lung cancer cell line H23; experiment: Example 9 sensitization of manufactured T cells by lysate of etoposide-treated tumor cells, cytokine re-stimulation read-out (FIG. 37); format: cell-based, human
Method: Manufactured T cells for this and all of the following examples were produced by the following procedure: peripheral blood apheresis PBMC product was subjected to Ficoll gradient centrifugation and the resultant cells were plated at 15×10^6 cells/mL; at culture initiation, temsirolimus was added at a final concentration of 2 μM and basiliximab was added at a final concentration of 30 μg/mL; after 24 hours of culture, IFN-α was added to achieve a final concentration of 20,000 IU/mL; no other cytokines were added; no co-stimulation was provided; the manufactured T cells were harvested on day 6 of culture for further use.
The pancreatic cancer cell line MIA PaCa-2 and the lung cancer cell line H23 were treated for 72-hours with etoposide, an inducer of immunogenic cell death, at concentrations of 0.5, 5.0 and 50 μM. Briefly, a cell concentration of 5×10^6 tumor cells/mL was utilized to generate 100 μL of lysate, which was then used to directly stimulate manufactured T cells. That is, there was no separate T cell APC manufacturing step used for this experiment (lysate added directly to effector T cells). The tumor cell lysate was then added to manufactured T cells which were expanded in X-Vivo 20 media containing IL-2 (100 IU/mL), IL-7 (10 ng/mL), and IL-15 (10 ng/mL).

FoxP3 = experiment: Intra-cellular FoxP3 expression at day 6 of ex vivo T cell culture (FIG. 1A); format: cell-based
Method: (§1) T cells were cultured ex vivo, as indicated, using various ratios of anti-CD3, anti-CD28 beads to T cells (1:1 or 1:12); the mTOR inhibitor temsirolimus (1 μM); without or with the anti-IL-2 receptor monoclonal antibody daclizumab (5 or 50 μg/ml); and either Th1 polarization cytokines (IFN-alpha; 10,000 IU/ml) or control regulatory T cell polarization (IL-2 plus TGF-β). At day 6 of culture, the T cells were evaluated for intra-cellular expression of the regulatory T cell transcription factor FoxP3 and the Th1 transcription factor TBET. (FIGS. 1A-1B).

TBET = experiment: Intra-cellular TBET expression at day 6 of ex vivo T cell culture (FIG. 1B); format: cell-based
Method: as §1

[2] = tested on: IFN-γ and TNF-α secretion by CD4+ and CD8+ T cells; experiment: Day 6 / day 13 cytokine secretion after 3:1 3/28 bead co-stimulation, Luminex (FIGS. 3A-3B); format: cell-based
Method: To evaluate this, we tested cytokine secretion potential of the manufactured T cells at the end of cell culture (day 6) and then again one week after ex vivo expansion after maximal co-stimulation (3/28 bead-to-T cell ratio, 3:1) and propagation in media devoid of any inhibitors. In FIGS. 3A-3B, CD4^+ and CD8^+ T cells were purified and cultured for 6-days either with or without a 16-hr interval of pre-incubation prior to co-stimulation (1:1 ratio of 3/28 beads-to-T cells). As indicated, temsirolimus was added at concentrations of either 1.0 or 0.1 μM; all cultures were supplemented with IFN-α (10,000 IU/ml) and daclizumab (50 μg/ml). On day 6 of culture, the resultant T cells were co-stimulated for 24 hr using a 3:1 ratio of 3/28 beads; the supernatant was tested for cytokine content by Luminex assay (results are described as pg per ml of cytokine secreted per million cells per 24 hr). […] N.A, abbreviation indicates not applicable (insufficient T cell yield to perform assay).

p62 = experiment: Western blot of p62 after 16-hr pre-incubation (FIG. 11); format: cell-based, human
Method: (§2) For FIGS. 11-13, human CD4^+ and CD8^+ T cells were cultured using a 16-hr pre-incubation interval prior to the addition of 3/28 beads at the reduced ratio of 1:3 beads-to-T cells. As indicated in FIGS. 11-13, the various T cell cultures received different methods of mTOR inhibition (rapamycin at 1.0 μM; temsirolimus at 1.0 or 0.1 μM), different conditions of exogenous IL-2 addition, and different conditions relative to addition of the anti-IL-2 receptor monoclonal antibody, daclizumab. After the 16-hr pre-incubation interval, cells were harvested from the T cell cultures, protein was isolated, and p62 (FIG. 11), phospho-RAPTOR (FIG. 12), or BIM (FIG. 13) and the housekeeper gene β-actin were quantified by western blot.

phospho-RAPTOR = experiment: Western blot of phospho-RAPTOR after 16-hr pre-incubation (FIG. 12); format: cell-based, human; details: high-dose temsirolimus compared to low-dose temsirolimus or high-dose rapamycin
Method: as §2

[3] = temsirolimus plus daclizumab under TREG-permissive conditions: bead ratio 1:12, no IFN-α, exogenous IL-2 plus TGF-β

| Molecule | sensitizing manufactured T cells to cytokine secretion in response to repeat exposure to lysate ([1]; 72-hour incubation of MIA PaCa-2 or H23 with etoposide 0.5 to 5.0 μM) | T cell sensitization ([1]; etoposide at the higher concentration of 50 μM) | FoxP3 expression (FoxP3; exogenous IL-2 added in combination with IFN-α) | T cell expression of FoxP3 (FoxP3; temsirolimus 1.0 μM with IFN-α, relative to day 0 input T cell population) | FoxP3 expression (FoxP3; [3]) | expression of TBET (TBET; combination of temsirolimus and an anti-IL-2 receptor monoclonal antibody) | day 13 T cell IFN-γ and TNF-α secretion ([2]; pre-incubation plus high-dose temsirolimus, after one week without inhibitors) | day 6 T cell cytokine secretion potential ([2]; temsirolimus 0.1 μM) | day 6 T cell IFN-γ and TNF-α secretion after 24 hr of maximal co-stimulation ([2]; temsirolimus 1.0 μM, with or without overnight pre-incubation) | autophagy marker p62 (p62; pre-incubation, 1:3 beads, daclizumab, rapamycin 1 μM or temsirolimus 1.0 or 0.1 μM) | phosphorylated form of RAPTOR (phospho-RAPTOR) | FoxP3 expression, dose-response (FoxP3; antibody at 50 μg/ml versus 5 μg/ml) | FoxP3 expression (FoxP3; blockade of the IL-2 receptor added to temsirolimus and IFN-α) | TBET expression, dose response (TBET; 50 μg/ml versus 5 μg/ml) | autophagy marker p62 (p62; IL-2 receptor blockade eliminated from the regimen) |
| --- | --- | --- | --- | --- | --- | --- | --- | --- | --- | --- | --- | --- | --- | --- | --- |
| COc1cc([C@@H]2c3cc4c(cc3[C@@H](O[C@@H]3O[C@@H]5CO[C@@H](C)O[C@H]5[C@H](O)[C@H]3O)[C@H]3COC(=O)[C@H]23)OCO4)cc(OC)c1O [etoposide] | effective | not effective | – | – | – | – | – | – | – | – | – | – | – | – | – |
| CO[C@H]1C[C@@H]2CC[C@@H](C)[C@@](O)(O2)C(=O)C(=O)N2CCCC[C@H]2C(=O)O[C@H]([C@H](C)C[C@@H]2CC[C@@H](OC(=O)C(C)(CO)CO)[C@H](OC)C2)CC(=O)[C@H](C)/C=C(\C)[C@@H](O)[C@@H](OC)C(=O)[C@H](C)C[C@H](C)/C=C/C=C/C=C/1C [temsirolimus] | – | – | not effective | reduced | not effective | increased expression of TBET | highest | only partially reduced | very low levels | autophagy could be realized | lower levels of phospho-RAPTOR | – | – | – | – |
| B1 | – | – | – | – | not effective | – | – | – | – | – | – | more effective | further reduced | higher degree | substantially blunted the induction of autophagy |
